# From US6465615B1 (AstraZeneca AB, priority 2001, dated 2002)
# Entries after “also recorded” stand apart in the source; their conditions may differ.
# Tests used:
# [1] = Stability / hygroscopicity at ambient room temperature and humidity; format: physicochemical; conditions: for stability at standard room temperature and humidity (ambient conditions): Preparation 3 after about 5 hours standing, TGA
# Procedure: The partially dehydrated material was allowed to stand for about 5 hours.
# [2] = physchem
# [3] = Solubility measured visually; conditions: relative to crystalline lisinopril dihydrate (Zestril)
# [4] = cited from earlier work
smiles,measurement,setting,value
NCCCC[C@H](N[C@@H](CCc1ccccc1)C(=O)O)C(=O)N1CCC[C@H]1C(=O)O.O [Preparation 3],stability at standard room temperature and humidity (ambient conditions),[1],not a stable monohydrate
same,hygroscopicity,"[1]; crystals returned to room temperature after heating, evolved water reabsorbed from atmosphere",strongly hygroscopic
NCCCC[C@H](N[C@@H](CCc1ccccc1)C(=O)O)C(=O)N1CCC[C@H]1C(=O)O.O [monohydrate lisinopril form 1],stability at standard room temperature and humidity (ambient conditions),[1]; listed as form 1,stable
"NCCCC[C@H](N[C@@H](CCc1ccccc1)C(=O)O)C(=O)N1CCC[C@H]1C(=O)O [monohydrate lisinopril form 2, 1-(N^2-[(S)-1-carboxy-3-phenylpropyl]-L-lysyl)-L-proline]",stability at standard room temperature and humidity (ambient conditions),[1],stable
same,solubility,[2],400 to 450 mg/mL
same,solubility compared with lisinopril dihydrate,[3],far greater solubility; also recorded: much more soluble; also recorded: substantially more soluble
NCCCC[C@H](N[C@@H](CCc1ccccc1)C(=O)O)C(=O)N1CCC[C@H]1C(=O)O [lisinopril],time to peak serum concentrations,[4]; following oral administration,≤ 7 h
same,effective half-life of accumulation,[4]; multiple dosing,about 12.6 hours
